Experimental data reported in paper PMC11878259 (2025).

Assays:
[1] = tested on: U50G, C52A, A66U (eBroccoli) (RNA, aptamer) GCCCGGAUAGCUCAGUCGGUAGAGCAGCGGAGACGGUCGGGUCCAGAUAGUAGUAUCUGUCGAGUUGAGUGUGGGCUCCGCGGGUCCAGGGUUCAAGUCCCUGUUCGGGCGCCA; assay: fluorescence light-up, microplate; conditions: 0.5 mM K+, 10 mM Na+, 0.2 mM Mg2+, 0.1 mM Ca2+; 20 mM Tris pH 7.5; 25, 37, 45 °C; 0.5 µM RNA, 10 µM compound
[2] = tested on: Cy5-labeled Broccoli (RNA, aptamer) GCCCGGAUAGCUCAGUCGGUAGAGCAGCGGAGACGGUCGGGUCCAGAUAUUCGUAUCUGUCGAGUAGAGUGUGGGCUCCGCGGGUCCAGGGUUCAAGUCCCUGUUCGGGCGCCA; assay: fluorescence imaging in RNA-peptide condensates; conditions: 100 mM K+, 1 mM Mg2+; 40 mM Tris pH 7.5, room temperature; 5 µM RNA; rU22 or rA22 with [RGRGG]5 or R10
[3] = tested on: Cy5-labeled eBroccoli (RNA, aptamer) GCCCGGAUAGCUCAGUCGGUAGAGCAGCGGAGACGGUCGGGUCCAGAUAGUAGUAUCUGUCGAGUUGAGUGUGGGCUCCGCGGGUCCAGGGUUCAAGUCCCUGUUCGGGCGCCA; assay: fluorescence imaging in RNA-peptide condensates; conditions: 100 mM K+, 1 mM Mg2+; 40 mM Tris pH 7.5, room temperature; 5 µM RNA; rU22 or rA22 with [RGRGG]5 or R10

Measured: binding

CC1=N/C(=C\c2cc(F)c(O)c(F)c2)C(=O)N1CC(F)(F)F
yes: [1] | [2] | [3]
